SMILES strings stand for the structures. “Also recorded” adds a separate entry of the source. Where two headings read alike, the source gives them in different places.

For experiment [1], the system named is HCT116 colon cancer cells. Kind of experiment: LDH release assay in HCT116 cells. Format: cell-based. Particulars: Homo sapiens, HCT-116; HCT116, 16 hours; read-out: half-maximal effect, LDH assay. How it is done:
(§1) (A) MTT assay was performed after 24 hours. […] (B) LDH assay was performed after […]. LDH release by untreated cells was set to 1. Relative fold increase is shown (n=3).
The capacity for rapid cell killing by NEO218 relative to 3-BP, POH and 3-BP+POH was evaluated via LDH assay, where LDH release is used as a proxy for cell death.
In FIG. 4, Panels (a) and (b), show the results of treating breast cancer cell lines with increasing concentrations of NEO218, 3-BP, or 3-BP mixed with POH. […] In all cases a-d, the release of LDH (as a marker of cell death) was measured after 24 hours.
Depending on the cell line, 2000 to 4000 cells per well were seeded in a volume of 50 μL into a 96-well plate. The next day, drugs ere added in an additional 50 μL of medium. At different time points (usually after 24 hours of incubation), 50 μL medium was removed and processed with the LDH Cytotoxicity Assay Kit (Thermo Fisher Scientific, Waltham, Mass.) according to the manufacturer's instructions. This kit measures extracellular LDH in culture medium using an enzymatic reaction that results in a red formazan product, which can be measured spectrophotometrically. The absorbance was measured at 490 and 680 nm. All LDH levels were normalized to untreated controls and presented as fold change of the controls.

Experiment [2] deals with all cell types (breast, brain, ovary, colon cancer cell lines). Kind of experiment: Summary of cytotoxicity over MTT, LDH and colony formation assays (FIGS. 2-5). Format: cell-based, human. Particulars: for IC50: Homo sapiens. From the text: The tumor cell-killing potency of NEO218 was characterized by in vitro, short-term MTT assays (measuring viability of cells via determination of metabolic activity), LDH assays (measuring the release of lactate dehydrogenase as an indicator of leaky cell membranes, which are indicative of dying cells), and colony-formation assays (CFA, which determine long-term survival of drug-treated cells and their ability to spawn a colony of descendants). Several established cell lines derived from cancers of the breast were used as target cells (including MDA-MB-231; MDA-MB-468; T47D; MCF7; MCF7/Dox; BTB12), brain (T98G; U251), ovary (A2780), and colon (HCT116). In all cases, cells in culture were exposed to increasing concentrations of agents for 24 or 48 hours.

Experiment [3] has as its system HCT116 colon cancer cells. Kind of experiment: MTT assay with pan-caspase inhibitor zVAD pre-treatment. The class given is cell-based, human. As to conditions: 50 μM zVAD 1 hour before drug, MTT after 24 hours. As for the experimental part: (A) FACS analysis of HCT116 cells after treatment for 2, 4, or 8 hours with vehicle, 30 μM 3-BP, 30 μM NEO218, or 1 μM staurosporine (STS). […] (B) Western blot analysis of apoptotic markers. In the top section, MDA-MB-231 cells were treated with 30 μM NEO218 or 1 μM STS for various time points. In the lower section, HCT116 cells were treated with the indicated concentrations of 3-BP, NEO218, or STS for 16 hours. In all cases cell lysates were prepared and analyzed for the well-established apoptotic markers cleaved PARP, cleaved (i.e., activated) caspase 7 (cl. C-7), and phosphorylated (i.e., active) H2AX. Actin was used as a loading control. (C) HCT116 cells were pretreated with 50 μM Z-VAD-FMK for one hour, followed by the addition of increasing concentrations of 3-BP or NEO218. Cell viability was determined by MTT assay 24 hours later. Data points are averages from n=3.
The capacity for NEO218 to induce apoptosis was further evaluated in a series of experiments using an MTT assay. The apoptosis-blocker zVAD (z-VAD-FMK), an agent that acts as a pan-caspase inhibitor, was used. HCT116 colon cancer cells were treated for 1 hour with or without 50 μM zVAD, followed by increasing concentrations of NEO218 or 3-BP. Twenty-four hours thereafter, cell viability was determined by MTT assay.

Experiment [4] concerns MDA-MB-231 cells. Kind of experiment: MTT short-term toxicity assay in MDA-MB-231 cells. Format: cell-based, human. How it is done: as §1
(A) MTT assay was performed after 24 hours. Viability of untreated cells was set at 100% (data points are averages of 2 experiments). (B) LDH assay was performed after 24 hours. LDH release by untreated cells was set to 1. Relative fold increase is shown (averages from 2 experiments). (C) Representative photos show typical colony formation after initial 48 hours of drug treatment. In all cases of combination treatment with 3-BP mixed with […] (3-BP+POH), the indicated concentrations refer to each individual drugs, i.e., 100 μM 3-BP+POH means that 100 μM 3-BP was combined with 100 μM POH.
Methylthiazoletetrazolium (MTT) assays were performed as described earlier.

For experiment [5], the system named is HCT116 cells. Kind of experiment: cells. As to conditions: Homo sapiens; for IC50: HCT-116, 24 h, read-out: half-maximal effect, MTT assay.
Protocol: (A) MTT assay was performed after 24 hours. Viability of untreated cells was set at 100% (n=3).
Methylthiazoletetrazolium (MTT) assays were performed as described earlier [38]. Briefly, cells were seeded into 96-well plates at 2.0 to 8.0×10^3 cells per well and exposed to drug treatment (or solvent alone) for 24 or 48 hours. In individual experiments, each treatment condition was set up in triplicate, and each experiment was repeated several times independently.
Experiment [6] deals with GAPDH (Homo sapiens, UniProt P04406). Kind of experiment: GAPDH activity assay after 30 minutes drug treatment of living cells. Format: cell-based. Also noted: endogenous in cells. How it is done: (A) HCT116 cells were treated with 40 μM 3-BP or NEO218 in the presence or absence of 1 mM NAC, 1 mM GSH, or 50 mM methyl-pyruvate (or sodium pyruvate, which produced similar outcomes). Cell viability was determined 24 hours later by MTT assay. (B) HCT116 cells were treated with 30 or 100 μM 3-BP or NEO218. After 30 minutes, cell lysates were prepared and analyzed for GAPDH activity. (C) Lysates from non-drug-treated MDA-MB-231 cells were mixed with 3-BP or NEO218 in the presence or absence of NAC or GSH at the concentrations mentioned in A. After 1 hour of incubation, GAPDH activity was determined. GAPDH activity in the absence of drug treatment was set at 100% (corresponding to 0.06 units/min×10^6 cells).
Enzymatic activity of GAPDH in vitro was measured with the Colorimetric GAPDH Assay kit (ScienCell Research Laboratories, Carlsbad, Calif.). This assay is based on the oxidization of β-NADH to β-NAD in the presence of 3-phosphoglyceric acid, ATP and GAPDH. GAPDH activity is determined by assaying the rate of NADH oxidation, which is proportional to the reduction in absorbance at 340 nm over time (ΔA340 nm/min). One hundred thousand cells were lysed in 100 μL cell lysis buffer and incubated with the above components. Changes in absorbance over 10 minutes were calculated and normalized to untreated controls. Data are presented as percentage of controls. […]

The mark [7] stands for this setting: all cell types, FIGS. 2-5, read-out: IC50 (ability of a drug to reduce cell survival by 50%).

Sequence of GAPDH (P04406 whole entry): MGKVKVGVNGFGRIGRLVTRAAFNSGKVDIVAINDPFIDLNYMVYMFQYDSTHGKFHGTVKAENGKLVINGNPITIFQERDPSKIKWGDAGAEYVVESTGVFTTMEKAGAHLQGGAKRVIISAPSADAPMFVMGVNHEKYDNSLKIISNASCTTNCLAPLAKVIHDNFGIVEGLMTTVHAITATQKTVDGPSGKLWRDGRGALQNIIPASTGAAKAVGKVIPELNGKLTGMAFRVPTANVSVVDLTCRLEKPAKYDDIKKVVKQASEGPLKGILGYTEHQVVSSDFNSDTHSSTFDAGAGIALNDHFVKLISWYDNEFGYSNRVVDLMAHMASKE

Turning to `O=C(O)C(=O)CBr` [3-BP, 3-bromopyruvate], in experiment [1], the EC50 was approximately 8 µM. The IC50 in experiment [2] (setting [7]) was 10 to 200 µM; in experiment [2] (cell types in which 3-BP is not similarly potent, read-out: concentrations required for cell death in less sensitive cell types), more than 200 µM; in experiment [4] (Homo sapiens, MDA-MB-231, 24 hours, read-out: effective concentration (half-maximal), MTT assay), approximately 220 µM; in experiment [5], approximately 18 µM; in experiment [6] it was less than 30 µM. Also, in experiment [3], the “effect of zVAD pre-treatment on drug-induced cell death” value is on record as “did not affect the cytotoxic IC50; also recorded: did not prevent induction of cell death”. In addition, in experiment [5] (HCT-116, read-out: reduction of apparent viability in MTT assay), the cytotoxicity at 40 µM is 75%.
Consider `C=C(C)[C@@H]1CC=C(COC(=O)C(=O)CBr)CC1` [NEO218, 3-bromo-2-oxo-propionic acid 4-isopropenyl-cyclohex-1-enylmethyl ester], for which the EC50 in experiment [1] is approximately 8 µM. For the same molecule, the IC50 in experiment [2] (setting [7]) was 5 to 30 µM; in experiment [5], approximately 18 µM; in experiment [6] (HCT116 cells treated 30 minutes, then lysed, read-out: IC50 (GAPDH activity)) it was less than 30 µM. Also, the “killing of drug-resistant cells” value in experiment [2] (T98G (TMZ-resistant) and MCF7/Dox (multi-drug-resistant) cells) is recorded as “effectively killed”. Moreover, the “effect of zVAD pre-treatment on drug-induced cell death” value in experiment [3] is on record as “did not affect the cytotoxic IC50; also recorded: did not prevent induction of cell death”. Further, the “potency in MDA-MB-231 compared with HCT116 / with 3-BP alone” value in experiment [4] (MTT, LDH and CFA assays) was “maintained the same high potency”.

(Values after patent US10858305B2, “Perillyl alcohol-3-bromopyruvate conjugate and methods of treating cancer” (NeOnc Technologies, Inc., priority 2016, dated 2020).)
